Results published in article PMC7186572, “Functional Identification and Structural Analysis of a New Lipoate Protein Ligase in Mycoplasma hyopneumoniae” (Frontiers in Cellular and Infection Microbiology, 2020).

What was measured:
[1] = target: T1, E. coli LplA (Escherichia coli, UniProt P32099); experiment: western blot of GcvH lipoylation with anti-lipoic acid antibody; type: biochemical; details: 1 mM lipoic acid, 5 mM ATP, 1 mM MgCl2, 5 mM DTT, 20 μM apo E. coli GcvH as acceptor, pH 7.0, 37 °C, 4 h
T1 construct: full length, C-terminal His tag, pET32a NdeI/XhoI, expressed in E. coli BL21(DE3)
T1 sequence (P32099 2-338): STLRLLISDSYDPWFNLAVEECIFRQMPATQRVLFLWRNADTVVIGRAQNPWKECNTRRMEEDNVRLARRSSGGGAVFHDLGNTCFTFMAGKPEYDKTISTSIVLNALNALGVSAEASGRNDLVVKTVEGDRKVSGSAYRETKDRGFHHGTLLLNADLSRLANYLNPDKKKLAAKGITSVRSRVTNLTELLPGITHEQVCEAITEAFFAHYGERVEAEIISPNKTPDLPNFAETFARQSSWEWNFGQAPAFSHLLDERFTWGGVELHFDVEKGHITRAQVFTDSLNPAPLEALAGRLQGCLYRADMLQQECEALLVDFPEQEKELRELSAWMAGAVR

[2] = target: T2, Mhp-Lpl (Mesomycoplasma hyopneumoniae, UniProt Q4AA29); experiment: as above; type: biochemical; details: 1 mM lipoic acid, 5 mM ATP, 1 mM MgCl2, 5 mM DTT, 20 μM apo Mhp H as acceptor, pH 7.0, 37 °C, 4 h
T2 construct: gene lplA-1; full length, 343 residues, C-terminal His tag, pET32a NdeI/XhoI, synthetic E. coli codon-optimised gene (TGA to TGG), expressed in E. coli BL21(DE3), about 40 kDa
T2 sequence (Q4AA29 1-342 limits assumed): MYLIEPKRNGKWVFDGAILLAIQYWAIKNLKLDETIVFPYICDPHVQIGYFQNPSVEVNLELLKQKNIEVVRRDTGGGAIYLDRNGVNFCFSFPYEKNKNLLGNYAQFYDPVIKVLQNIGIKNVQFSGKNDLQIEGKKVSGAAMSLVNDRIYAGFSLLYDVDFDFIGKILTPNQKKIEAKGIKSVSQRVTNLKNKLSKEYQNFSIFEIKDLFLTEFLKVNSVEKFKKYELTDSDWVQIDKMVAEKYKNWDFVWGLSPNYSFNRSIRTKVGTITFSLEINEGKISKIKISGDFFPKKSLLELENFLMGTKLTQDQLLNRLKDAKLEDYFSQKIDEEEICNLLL

[3] = target: T3, large domain of Mhp-Lpl (ML) (Mesomycoplasma hyopneumoniae, UniProt Q4AA29); experiment: as above; type: biochemical; details: 1 mM lipoic acid, 5 mM ATP, 1 mM MgCl2, 5 mM DTT, 20 μM apo Mhp H as acceptor, pH 7.0, 37 °C, 4 h
T3 construct: gene lplA-1; large N-terminal domain, residues 1-254, C-terminal His tag, pET32a, expressed in E. coli BL21(DE3)
T3 sequence (Q4AA29 1-256 limits assumed): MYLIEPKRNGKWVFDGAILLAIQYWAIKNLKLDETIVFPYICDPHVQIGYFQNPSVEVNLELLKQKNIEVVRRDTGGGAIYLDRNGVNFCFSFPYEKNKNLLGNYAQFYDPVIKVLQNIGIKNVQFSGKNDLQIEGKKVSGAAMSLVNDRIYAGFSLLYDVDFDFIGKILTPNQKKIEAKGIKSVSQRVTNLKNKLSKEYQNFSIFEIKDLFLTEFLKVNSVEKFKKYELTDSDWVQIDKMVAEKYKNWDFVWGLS

[4] = target: T2, Mhp-Lpl; experiment: X-ray crystallography, […] Å; type: binding; details: enzyme reacted with ATP and lipoic acid, then further purified and crystallised; partial occupancy; active site; reaction intermediate; an unidentified AMP-fatty acid co-purifies from E. coli

Row | Structure (SMILES) | western blot of GcvH lipoylation with anti-lipoic acid antibody [1] | western blot of GcvH lipoylation with anti-lipoic acid antibody [2] | western blot of GcvH lipoylation with anti-lipoic acid antibody [3] | X-ray crystallography, 2.45 Å [4]
1 | O=C(O)CCCC[C@@H]1CCSS1 (racemic) [lipoic acid] | E. coli LplA could successfully transfer lipoic acid to E. coli GcvH | lipoic acid was successfully transferred to the Mhp H protein by the MHP_RS01680-encoded protein | the large domain is able to catalyze Mhp H lipoylation | –
2 | Nc1ncnc2c1ncn2[C@@H]1O[C@H](COP(=O)(O)OP(=O)(O)OP(=O)(O)O)[C@@H](O)[C@H]1O [ATP] | – | Mhp-Lpl catalyzes the ATP-dependent activation of lipoate to lipoyl-AMP | including activation of lipoic acid with ATP to form lipoyl-AMP | –
3 | Nc1ncnc2c1ncn2[C@@H]1O[C@H](COP(=O)(O)OC(=O)CCCC[C@@H]2CCSS2)[C@@H](O)[C@H]1O [lipoyl-AMP] | – | – | – | lipoyl-AMP could be modeled into the density, despite its partial occupancy
